Assay results: ChEMBL document CHEMBL1201862, “PubChem BioAssay data set” (2004)
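48-hour exposure; five concentrations; linearly interpolated endpoints. GI50 is the concentration that inhibits growth by half.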 Activity calls are given as the source filed them. No stated cut-off is given here; in the data, active = GI50 up to about 1.1 µM and inactive = higher.

Experiments:
Experiment in all cases: inhibition of tumour cell growth, NCI panel, 48 h
MDA-N = system: MDA-N
HCT-15 = system: HCT-15
MCF7 = system: MCF7
NCI-H23 = system: NCI-H23
BT-549 = system: BT-549
NCI-H522 = system: NCI-H522
RPMI-8226 = system: RPMI-8226
DU-145 = system: DU-145
MDA-MB-231 = system: MDA-MB-231
HOP-62 = system: HOP-62
CCRF-CEM = system: CCRF-CEM
U-251 = system: U-251
TK-10 = system: TK-10
MOLT-4 = system: MOLT-4
OVCAR-3 = system: OVCAR-3
786-0 = system: 786-0
UO-31 = system: UO-31
SF-539 = system: SF-539
CAKI-1 = system: CAKI-1
Hs-578T = system: Hs-578T
OVCAR-5 = system: OVCAR-5
IGROV-1 = system: IGROV-1
COLO 205 = system: COLO 205
NCI-H226 = system: NCI-H226
KM12 = system: KM12
SK-MEL-28 = system: SK-MEL-28
HOP-92 = system: HOP-92
SK-MEL-2 = system: SK-MEL-2
OVCAR-8 = system: OVCAR-8
SNB-19 = system: SNB-19
UACC-257 = system: UACC-257
LOX IMVI = system: LOX IMVI
HT-29 = system: HT-29
SN12C = system: SN12C
M14 = system: M14
SK-MEL-5 = system: SK-MEL-5
NCI-H460 = system: NCI-H460
NCI/ADR-RES = system: NCI/ADR-RES
HCC 2998 = system: HCC 2998
HL-60 = system: HL-60
SK-OV-3 = system: SK-OV-3
SW-620 = system: SW-620
K562 = system: K562
HCT-116 = system: HCT-116
ACHN = system: ACHN
PC-3 = system: PC-3
OVCAR-4 = system: OVCAR-4
A549 = system: A549
T47D = system: T47D
SR = system: SR
MDA-MB-435 = system: MDA-MB-435
SNB-75 = system: SNB-75
RXF 393 = system: RXF 393
EKVX = system: EKVX
SF-268 = system: SF-268
UACC-62 = system: UACC-62
SF-295 = system: SF-295
A498 = system: A498
Malme-3M = system: Malme-3M

Measured: GI50

Cc1cccc(C)c1NC(=S)NC=C1C(=O)c2ccccc2C1=O
inactive: MDA-N 9.14 µM | MCF7 4.59 µM | NCI-H23 16.6 µM | BT-549 4.84 µM | NCI-H522 3.41 µM | RPMI-8226 3.07 µM | DU-145 12.1 µM | MDA-MB-231 19.5 µM | HOP-62 23.2 µM | CCRF-CEM 5.18 µM | U-251 3.09 µM | TK-10 6.73 µM | OVCAR-3 5.38 µM | 786-0 13.1 µM | UO-31 9.29 µM | SF-539 11.2 µM | CAKI-1 17.8 µM | Hs-578T 10.5 µM | OVCAR-5 39.7 µM | IGROV-1 6.95 µM | COLO 205 3.52 µM | NCI-H226 46.1 µM | KM12 2.83 µM | SK-MEL-28 15.3 µM | HOP-92 12.5 µM | SK-MEL-2 16 µM | OVCAR-8 1.44 µM | SNB-19 18.2 µM | UACC-257 12.4 µM | LOX IMVI 19.1 µM | HT-29 5.78 µM | SN12C 9.42 µM | M14 17.5 µM | SK-MEL-5 7.91 µM | NCI-H460 3.98 µM | NCI/ADR-RES 16.8 µM | HCC 2998 5.86 µM | HL-60 2.45 µM | SK-OV-3 18.4 µM | SW-620 6.85 µM | K562 3.61 µM | HCT-116 4.62 µM | ACHN 5.19 µM | PC-3 3.76 µM | OVCAR-4 10.5 µM | A549 6.78 µM | T47D 6.17 µM | SR 2.22 µM | MDA-MB-435 7.5 µM | SNB-75 3.52 µM | RXF 393 4.3 µM | EKVX 9.82 µM | SF-268 7.52 µM | UACC-62 5.24 µM | SF-295 4.67 µM
7.35 µM: HCT-15
active: MOLT-4 0.75 µM

Cc1ccc(NC(=O)/C(=N\NC(N)=O)c2c(O)c3ccccc3[nH]c2=O)cc1
inactive: MDA-N > 100 µM | MCF7 > 100 µM | NCI-H23 > 100 µM | BT-549 > 100 µM | RPMI-8226 > 100 µM | DU-145 > 100 µM | MDA-MB-231 > 100 µM | CCRF-CEM > 100 µM | U-251 > 100 µM | MOLT-4 > 100 µM | OVCAR-3 > 100 µM | 786-0 > 100 µM | UO-31 > 100 µM | SF-539 > 100 µM | CAKI-1 > 100 µM | Hs-578T > 100 µM | OVCAR-5 > 100 µM | COLO 205 > 100 µM | NCI-H226 > 100 µM | KM12 > 100 µM | A498 > 100 µM | SK-MEL-28 > 100 µM | HOP-92 > 100 µM | SK-MEL-2 > 100 µM | OVCAR-8 > 100 µM | SNB-19 > 100 µM | UACC-257 > 100 µM | LOX IMVI > 100 µM | HT-29 > 100 µM | SN12C > 100 µM | M14 > 100 µM | SK-MEL-5 > 100 µM | NCI-H460 > 100 µM | NCI/ADR-RES > 100 µM | HCC 2998 > 100 µM | HL-60 > 100 µM | SK-OV-3 > 100 µM | SW-620 > 100 µM | K562 > 100 µM | HCT-116 > 100 µM | ACHN > 100 µM | PC-3 > 100 µM | OVCAR-4 > 100 µM | A549 > 100 µM | T47D > 100 µM | SR > 100 µM | MDA-MB-435 > 100 µM | SNB-75 99.8 µM | RXF 393 > 100 µM | SF-268 > 100 µM | UACC-62 > 100 µM | SF-295 > 100 µM
> 100 µM: HCT-15

O=C(NC1=C(Cl)C(=O)c2ccccc2C1=O)c1ccccc1
25.2 µM: HCT-15
inactive: MDA-N 5.04 µM | MCF7 19.2 µM | NCI-H23 23.8 µM | BT-549 19.9 µM | NCI-H522 23.9 µM | Malme-3M 16.9 µM | RPMI-8226 44.4 µM | DU-145 55.1 µM | MDA-MB-231 32.9 µM | HOP-62 85.3 µM | CCRF-CEM 30.9 µM | U-251 27.8 µM | TK-10 23 µM | MOLT-4 20.1 µM | OVCAR-3 19.1 µM | 786-0 45.4 µM | SF-539 50.6 µM | Hs-578T 69 µM | OVCAR-5 47.1 µM | IGROV-1 21.8 µM | COLO 205 15.5 µM | NCI-H226 24.5 µM | KM12 32.1 µM | SK-MEL-28 44.8 µM | HOP-92 24.9 µM | OVCAR-8 43.2 µM | SNB-19 54.2 µM | UACC-257 > 10 µM | HT-29 29.3 µM | SN12C 38.1 µM | M14 50.8 µM | SK-MEL-5 27.5 µM | NCI-H460 40.3 µM | NCI/ADR-RES 18.5 µM | HCC 2998 46.5 µM | HL-60 34.8 µM | SW-620 17.3 µM | K562 21.8 µM | HCT-116 17.3 µM | ACHN 20.8 µM | PC-3 24.9 µM | OVCAR-4 45.1 µM | A549 52.5 µM | T47D 22.1 µM | SR 38.4 µM | MDA-MB-435 18.9 µM | SNB-75 65 µM | RXF 393 18.9 µM | EKVX > 100 µM | SF-268 64.1 µM | UACC-62 24.1 µM | SF-295 36 µM
